Measured values as given in patent US8039505B2, “Compounds for modulating T-cells” (University of Utah Research Foundation, priority 2007, dated 2011).

Test system: T cells from the thymus of lck::eGFP transgenic zebrafish
Assay: Screen for T cell ablation in lck::eGFP transgenic zebrafish larvae
Assay type: in vivo
Description: FIG. 4 is a schematic of the experimental set-up of drug screen using DIVERSet small molecule library and lck-GFP transgenic zebrafish. Beginning at the top of the figure, three day 6 pf transgenic larvae are arrayed in 300 μL of E3 embryos water into each of the 96 wells of a round bottom tissue culture plate (except G1, H1, G12, H12). Controls are added in triplicate: DMSO (A1-C1), E3 (D1-F1), dexamethasone 25 μM (A12-C12), and methanol (D12-F12). Then, five compounds from the DIVERSet library are added to each well at a final concentration of 5 μM. Plates are incubated at […] for 48 hours, and are inspected by fluorescence microscopy at 24 and 48 hours. […] Compounds from wells identified as active are tested individually in triplicates. One of the five compounds that is active in all three wells is identified and is worked up further (left side).
To extend the versatility of the system, a transgenic line of zebrafish was generated; in this line all T cells are tagged with green fluorescent protein (GFP). GFP is driven by the T cell specific p56^lck promoter (Langenau et al., Proc Natl Acad Sci USA 101:7369-7374, 2004).
Based on the above observation that zebrafish T cells can be killed by the small molecule dexamethasone (MW 392) (Langenau et al., Proc Natl Acad Sci USA 101:7369-7374, 2004) a screen for novel compounds with a similar T cell ablative profile was performed. […]

C(=NNc1cccc2cccnc12)c1c[nH]c2ccccc12 [Compound C3, 1H-indole-3-carbaldehyde quinolin-8-ylhydrazone]
Activity in vivo (active concentration): 3 µM
